Test results from publication PMC6954720, “Discovery of retinoic acid receptor agonists as proliferators of cardiac progenitor cells through a phenotypic screening approach” (Stem Cells Translational Medicine, 2019).
Entries after “also recorded” stand apart in the source; their conditions may differ. Read-outs that look alike come from different tables or passages of the source.

Experiments:
iPS-derived CPCs = assay: Cardiac progenitor marker antibody staining of treated CPCs; format: cell-based, human; conditions: 40 nM, 3 days
Experimental: (§1) The CPC proliferation assay including image and data analysis was performed as previously described.14 Cardiac progenitor marker antibodies are listed in Table S3.
A key requirement of the screen was that the expanded CPCs must retain their progenitor phenotype.
Figure 2 Cardiac progenitor cells (CPCs) retain progenitor markers after retinoic acid receptor agonist treatment. […] Larger images are representative merged images of Hoechst nuclear stain in blue and immunofluorescence of the indicated progenitor marker in green. Insets show the progenitor marker staining in gray scale at 3.3‐fold higher magnification. Scale bars: 50 μm

[1] = target: T1, RARB (beta) ligand binding domain (Homo sapiens, UniProt P10826); assay: RAR LBD-SRC1-2 coactivator peptide recruitment assay, agonist format, RARB; format: biochemical
T1 sequence (P10826 183-417 limits assumed): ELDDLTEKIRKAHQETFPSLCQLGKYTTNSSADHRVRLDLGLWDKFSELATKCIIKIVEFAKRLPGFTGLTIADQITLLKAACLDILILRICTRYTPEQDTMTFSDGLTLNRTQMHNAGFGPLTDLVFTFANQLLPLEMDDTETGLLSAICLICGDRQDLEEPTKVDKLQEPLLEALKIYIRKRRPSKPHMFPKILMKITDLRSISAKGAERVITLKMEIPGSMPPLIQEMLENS
Experimental: (§2) RAR ligand binding domain (LBD)‐SRC1‐2 coactivator peptide (NCOA1_677‐700 biotinylated) recruitment assays were established for the three RAR isotypes RARA (alpha), RARB (beta), and RARG (gamma) to determine relative potencies. […] A total of 0.4 μL of a fixed concentration range of test ligands dissolved in dimethyl sulphoxide (DMSO) was added to assay plates using an acoustic liquid dispenser. […] The raw data were transformed to % effect using the equation: compound % effect = 100 × [(X − min)/(max − min)], where X represents the effect in the presence of test compound and max and min are the effects in presence of the maximum and minimum controls, respectively.
(§3) The data were plotted to generate concentration‐response profiles and the concentration‐response curves were fit to the data using the four‐parameter logistic smart fit method in the Genedata Screener software (Genedata, Inc).

[2] = target: T2, RARG (gamma) ligand binding domain (Homo sapiens, UniProt P13631); assay: RAR LBD-SRC1-2 coactivator peptide recruitment assay, agonist format, RARG; format: biochemical
T2 sequence (P13631 185-419 limits assumed): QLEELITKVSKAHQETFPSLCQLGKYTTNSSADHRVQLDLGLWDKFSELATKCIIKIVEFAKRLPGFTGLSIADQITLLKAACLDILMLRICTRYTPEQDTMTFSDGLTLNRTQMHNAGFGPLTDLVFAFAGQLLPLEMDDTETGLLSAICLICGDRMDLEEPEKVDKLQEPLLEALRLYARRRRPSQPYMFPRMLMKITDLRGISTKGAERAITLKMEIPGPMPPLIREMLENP
Experimental: as §2, §3

[3] = system: human iPS-derived cardiac progenitor cells (CPCs); assay: CPC proliferation assay (nuclear count); format: cell-based
[4] = system: human cardiac fibroblasts (CFs); assay: CF proliferation assay (nuclear count)
Experimental: To ensure that these molecules were not general proliferators of all cardiac cells, they were also tested in a human CF proliferation assay31 using nuclear count as the endpoint.

[5] = system: RAR-responsive genes in CPCs; assay: RNA seq analysis of AM580-treated CPCs; format: cell-based, human; conditions: 4-hour and 24-hour time points
Experimental: CPC was seeded in fibronectin‐coated 24‐well plates, 150 000 cells in 0.5 mL media per well. […] Cell media were removed after 4 hours or 24 hours, and the cells were lysed for RNA preparation using the MagMax Total RNA Isolation kit. Triplicate samples were prepared for each treatment and time point. RNA integrity and concentration were analyzed on a fragment analyzer with the standard sensitivity RNA kit (Agilent, Santa Clara, California). RNA quality number was 8.2 on average.
A total of 1000 ng RNA per sample was processed with the TruSeq stranded mRNA kit (Illumina, San Diego, California) following the instructions from the manufacturer. […] Samples were pooled, diluted, and denatured according to Illumina's recommendations and sequenced on a NextSeq500 (High 150 cycles kit, reading 2 × 75 cycles). On average, samples had 13M reads with 93% of reads with >Q30.
RNA‐Seq data were processed using the bcbio pipeline version 0.9.7. Hisat2 version 2.0.2‐β aligner was used to align reads to the human genome version hg38. […] Differential expression analysis was performed on feature counts using DESeq2.32 Data quality was assessed using MultiQC.33 Genes with the lowest expression levels (less than five counts in at least two samples) were removed prior to differential expression estimation since they can be considered as nonexpressed.

[6] = system: human iPS-derived cardiac progenitor cells (CPCs); assay: CPC proliferation assay (nuclear count); format: cell-based; conditions: primary screen, relative to basic FGF 100 ng/mL
Experimental: as §1
A library of 10 000 compounds was screened in singlicate at three concentrations (0.1, 1.0, and 10 μM) in the CPC proliferation assay. Each plate contained neutral controls, 0.1% DMSO and maximum controls, 100 ng/mL human basic fibroblast growth factor (FGF; Invitrogen, ThermoFisher Scientific, Waltham, Massachusetts). The data were analyzed using the Genedata Screener software (Genedata, Inc, Basel, Switzerland). […] Results were calculated using the following calculation method: compound % effect = 100 × [(X − min)/(max − min)], where X represents a normalized value for the compound based on the neutral and maximum controls.
The library was screened in three‐point concentration response (CR) at 0.1, 1.0, and 10 μM measuring proliferation of human induced pluripotent stem (iPS)‐derived CPCs with nuclear count, as measured by Hoechst staining, as the primary endpoint.

[7] = system: human umbilical vein endothelial cells (HUVECs); parameters: method as in PMID 24424466; conditions: cited from earlier work
[8] = target: T3, RARA (alpha) ligand binding domain (Homo sapiens, UniProt P10276); assay: RAR LBD-SRC1-2 coactivator peptide recruitment assay, agonist format, RARA; format: biochemical
T3 sequence (P10276 183-417 limits assumed): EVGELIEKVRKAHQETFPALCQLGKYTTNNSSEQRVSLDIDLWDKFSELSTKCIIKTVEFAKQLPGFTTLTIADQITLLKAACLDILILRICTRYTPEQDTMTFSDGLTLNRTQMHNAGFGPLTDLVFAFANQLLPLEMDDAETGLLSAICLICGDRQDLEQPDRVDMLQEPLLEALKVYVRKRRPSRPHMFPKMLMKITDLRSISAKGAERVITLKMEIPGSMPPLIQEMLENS
Experimental: as §2, §3

human aortic SMCs = system: human aortic SMCs; parameters: method as in PMID 24424466; conditions: cited from earlier work
[9] = system: HuES6 hPSC-derived cardiac progenitors; assay: HuES6-derived cardiac progenitors replated on day 5: cell number, RT-qPCR, immunocytochemistry; format: cell-based, human; conditions: for effect on cell proliferation / cell numbers, in words: 1.0 μM, day-5 replated progenitors, 4 days of exposure
Experimental: Insulin and signaling agonists were omitted after 1 day. On days 2‐3, the nascent mesodermal cells were specified to the cardiac lineage using 0.2 μM C‐59 (R&D Tocris) supplementation. Culture medium was replaced daily.
Basal cardiac progenitor medium was composed of DMEM/F12 (ThermoFisher Scientific), insulin/transferrin/selenium supplement, 0.1% human serum albumin (Biological Industries Inc, Cromwell, Connecticut), 1× chemically defined lipids (ThermoFisher Scientific), and antibiotics. RAR agonists (1 μM) were added from the day of passaging the cells. Samples were harvested and monitored after 4 days of treatment.
Cell numbers per well were quantified following single‐cell dissociation with Accutase and using standard Neubauer counting chambers. RT‐qPCR and immunocytochemistry were performed according to standard procedures. RPL37A served as housekeeping gene for normalization.

murine CFs = system: murine CFs; parameters: method as in PMID 24424466; conditions: cited from earlier work
[10] = 10-point concentration response, read-out: EC50, CPC proliferation
[11] = iPSC-derived CPC proliferation, 10-point concentration response, read-out: CPC pEC50 (converted)
[12] = Log Concentration M -6 (1.0 μM)
[13] = Log Concentration M -7 (0.1 μM)

| SMILES | expression of cardiac progenitor markers Nkx2.5, Islet1, Gata4, PDGFRα after treatment (iPS-derived CPCs) | maximal effect (% top effect) [1] [%] | RARγ pEC50 (% top effect): % top effect [2] [%] | EC50 [3, 10] [nM] | EC50 [3, 11] [nM] | CF proliferation, result in words [4] | mRNA expression of RAR-responsive genes (RARB, RBP1, CRABP2, CYP26A1) [5] | % Effect-normalised cell count ([6]; Log Concentration M -5 (10 μM)) [%] | % Effect-normalised cell count [6, 12] [%] | % Effect-normalised cell count [6, 13] [%] | proliferation of HUVECs [7] | top effect (% of maximum control) [8] [%] | proliferation of human aortic SMCs (human aortic SMCs) | terminal cardiac differentiation, in words ([9]; 1 μM, day-5 replated cells, 4 days) | expression of cardiac progenitor markers vs untreated ([9]; 1 μM, day-5 replated cells, 4 days, with the exception of ISL1) | effect on cell proliferation / cell numbers, in words [9] | effect on cell proliferation / cell numbers, in words ([9]; listed as RA) | EC50 ([3]; 10-point CR, variable between occasions, read-out: EC50 variation between occasions, lower end) [nM] | EC50 ([3]; 10-point CR, variable between occasions, read-out: EC50 variation between occasions, upper end) [nM] | proliferation of murine CFs (murine CFs) |
| --- | --- | --- | --- | --- | --- | --- | --- | --- | --- | --- | --- | --- | --- | --- | --- | --- | --- | --- | --- | --- |
| CC1(C)CCC(C)(C)c2cc(C(=O)Nc3ccc(C(=O)O)cc3)ccc21 [AM580] | retain expression | 104 | 99 | 5 | 6.31 | inactive | significant increase | 49.6 | 76.4 | 106 | – | – | – | – | – | – | – | – | – | – |
| CC1=C(/C=C/C(C)=C/C=C/C(C)=C/C(=O)O)C(C)(C)CCC1 [ATRA, all‐trans retinoic acid] | – | – | – | 56 | 50.1 | inactive | – | 59 | 14 | 14 | promoted the proliferation | 103 | inhibited the proliferation | did not acquire a beating phenotype; also recorded: pronounced inhibition of terminal cardiac differentiation | enhanced the expression of cardiac progenitor markers | strong positive effects on cell proliferation | increase in cell numbers | 50 | > 10000 | inhibited the proliferation |
